Reference: patent publication US20250100997A1, “PYRIDAZINYL AMINO DERIVATIVES AS ALK5 INHIBITORS” (CHIESI FARMACEUTICI S.P.A., priority 2022, published 2025)

Target: T1, human ALK5 (recombinant TGF β1 N-term GST-tagged, 80-end) (Homo sapiens, UniProt P36897)
T1 construct: human ALK5 (recombinant TGF β1 N-term GST-tagged, 80-end); GST (N); purchased
T1 sequence (P36897 80-503 limits assumed): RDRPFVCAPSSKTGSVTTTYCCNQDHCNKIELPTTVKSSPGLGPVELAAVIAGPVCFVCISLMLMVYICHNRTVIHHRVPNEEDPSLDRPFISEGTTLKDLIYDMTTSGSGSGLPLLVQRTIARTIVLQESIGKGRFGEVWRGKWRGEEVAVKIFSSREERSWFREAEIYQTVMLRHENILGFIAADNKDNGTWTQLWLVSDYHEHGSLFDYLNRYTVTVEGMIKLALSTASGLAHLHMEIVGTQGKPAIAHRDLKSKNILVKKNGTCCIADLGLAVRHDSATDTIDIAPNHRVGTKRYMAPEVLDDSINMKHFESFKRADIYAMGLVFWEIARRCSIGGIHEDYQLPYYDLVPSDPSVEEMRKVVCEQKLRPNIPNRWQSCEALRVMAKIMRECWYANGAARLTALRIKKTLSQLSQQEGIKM
Assay: ADP-GLO kinase assay, biochemical ALK5 assay
Conditions: pIC50 converted to pKi using the Cheng-Prusoff equation, ATP at Km, or high ATP (30-fold Km) for very potent compounds, 25° C.
Protocol: The enzymatic activity of compounds of the present invention was monitored measuring the formation of ADP using the ADP-GLO Kinases assay. Following the incubation of the purified enzyme, a substrate and ATP, the produced ADP was converted into ATP, which in turn was converted into light by Ultra-Glo Luciferase. The luminescent signal positively correlated with ADP amount and kinase activity. Briefly, the kinase reaction was performed by incubating 2.6 nM of the purified, commercially available human ALK5 (recombinant TGF β1 N-term GST-tagged, 80-end), a final concentration of TGFβ1 peptide 94.5 μM (Promega, T36-58) and ultra-pure ATP (Promega V915B). The ATP concentration was set at the Km value (concentration of substrate which permits the enzyme to achieve half maximal velocity (Vmax)) of ALK5 (0.5 μM). Compound and ALK5 kinase were mixed and incubated for 15 mins. Reactions were initiated by addition of ATP at a final concentration in the assay of […]. After an incubation of 120 min, the reaction was stopped, and ADP production detected with ADP-Glo kit according to manufacturer's indications. To overcome the assay wall limit for very potent compounds the assay protocol was changed by using a high ATP concentration (30-fold Km). Compounds and ALK5 kinase were mixed for 15 min and the reaction initiated by addition of TGFβ1 peptide and ATP at a final concentration in the assay of 15 μM. After an incubation of 60 min, the kinase reaction was stopped, and ADP production detected with ADP-Glo kit according to manufacturer's indications.
All reaction and incubation steps were performed at 25° C. and the assays were performed in 384-well format and validated using a selection of reference compounds tested in 11-point concentration-response curve.
Results were expressed as pIC50 (negative logarithm of IC50) and subsequently converted to pKi (negative logarithm of […]) using the Cheng-Prusoff equation. The higher the value of pKi, the greater the inhibition of ALK5 activity.

| SMILES | Ki [nM] |
| --- | --- |
| CN1CCN(CCC(=O)Nc2cc(Nc3cc(-c4cc(Cl)ccc4F)nnc3C3CC(=O)N(C)C3)ccn2)CC1 (centres unmarked) [Example 23, N-(4-((6-(5-chloro-2-fluorophenyl)-3-(1-methyl-5-oxopyrrolidin-3-yl)pyridazin-4-yl)amino)pyridin-2-yl)-3-(4-methylpiperazin-1-yl)propanamide] | 1 to 3.16 |
| Fc1ccc(Cl)cc1-c1cc(Nc2ccc3ncsc3c2)c(C2=CCNCC2)nn1 [Example C1, N-[6-(5-chloro-2-fluorophenyl)-3-(1,2,3,6-tetrahydropyridin-4-yl)pyridazin-4-yl]-1,3-benzothiazol-6-amine, reference compound] | 60.3 |
